# Measured values from patent US11098040B2, “Compounds and methods of use” (Ferro Therapeutics, Inc., priority 2018, dated 2021).
# pIC50: −log10 of the molar value. Values joined by “and” are separate entries in the source; they are usually repeats but may differ in a detail not shown here. Identical values can stand only once.
# Assays:
# H2228 = experiment: Cell viability assay (CellTiter Glo), lung cancer cell line H2228; assay type: cell-based; conditions: Homo sapiens, NCI-H2228; lung cancer cell line, 96 hours, CellTiter Glo; read-out: IC50 H2228
# Experimental: (§1) Cell viability assay was performed to assess the potency of the compounds in human cancer cell lines KP4 (pancreatic ductal adenocarcinoma), MiaPaCa-2 (pancreatic carcinoma), AsPC-1 (pancreatic adenocarcinoma, ascites), 143B (osteosarcoma), and SJSA-1 (osteosarcoma). Selected compounds were also assayed in a human breast epithelial cell line MCF-10A, a nontumorigenic cell line as a control to assess differential activity. Cells at a density of 500-5,000 cells/well were seeded in 96-well plates and incubated at 37° C. overnight. A series of 9 different concentrations of compound stocks (500×) were created by 3-fold serial dilution in DMSO. These compounds were further diluted in culture media and then added to cells so that the final DMSO concentration was equal to 0.25% or less. After 96 hours of incubation, 50 μL of CellTiter Glo reagent (Promega) was added to each well and luminescence was measured after 10 minutes using EnVision (PerkinElmer). Compounds titrated from top concentration of up to 30 μM. The select compounds were tested initially from 30 μM as the top concentration in duplicates (range of 4.6 nM-30 μM). […] Luminescence from cells treated with DMSO alone was set as Max and % of inhibition was calculated as follows: Inhibition %=(Max-Sample value)/Max*100. Data was analyzed using XL-fit software (ID Business Solutions Ltd.). IC50, relative IC50, or % of top inhibition was calculated.
# (§2) A group of selected analogs were further profiled in cell viability assays described above in multiple additional cancer cell lines, including lung cancer, melanoma, hepatocarcinoma, pancreatic cancer, leukemia, lymphoma, ovarian cancer, breast cancer, colon cancer, and sarcoma cell lines. Initial cell seeding numbers were adjusted for each cell line. Typically, 500-5000 cells/well for adherent cells and 5000-10000/well for suspension cells were seeded in 96-well plates.
# MV-4-1 = experiment: Cell viability assay (CellTiter Glo), leukemia cell line MV-4-1; assay type: cell-based; conditions: 96 hours
# Experimental: as §1, §2
# (§3) The results of the assay in the leukemia cell lines are given in Table 16a for MV-4-1 and Table 16b for HL-60 and Kasumi-1.
# MiaPaCa-2 = experiment: Cell viability assay (CellTiter Glo), pancreatic carcinoma MiaPaCa-2; assay type: cell-based; conditions: Homo sapiens, MIA PaCa-2; pancreatic carcinoma, 96 hours, CellTiter Glo; read-out: IC50 MiaPaCa-2
# How it was run: (§4)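 MiaPaCa-2 and AsPC-1 cells were seeded overnight at 37 °C and exposed for 96 h to 9-point, 3-fold dilutions from up to 30 μM (final DMSO ≤0.25%). CellTiter Glo luminescence was read, and inhibition was calculated relative to DMSO-only cells. IC50, relative IC50 or % top inhibition was derived.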
# [1] = Pharmacokinetic (PK) studies via intravenous infusion, Sprague-Dawley rat; assay type: in vivo; conditions: male, plasma, one rat
# Experimental: Test compound dosing solutions were administered via intravenous infusion to Sprague-Dawley male rat.
# Into 50 μL of test compound plasma samples were added 5 μL DMSO then 200 μL of 25 ng/mL internal standard (ITSD) (Verapamil) in MeOH/acetonitrile (1:1, v/v). […] The limit of quantification (LOQ) was 1 ng/mL.
# The lower limit of quantification was 1-10 ng. A typical HPLC gradient table is described below: […]
# The PK profiles of compound 24 and compound 28 are shown below. […] The volume of injection via intravenous infusion route was adjusted for a dose of 2, 4 and 8 mg/kg. […] The limit of quantification was 1 ng/mL.
# [2] = mouse, in vivo, ip, 15 mg/kg
# Experimental: (§6) Test compounds were dissolved either in 20% (w/w) sulfobutylether-β-cyclodextrin (SBECD) pH 3-7 aqueous solution, or 5% DMSO/(30-50%) PEG400/(65-45%) water. Test compound dosing solutions were administered intraperitoneally to Balb/c nude male mice. Blood samples were collected at various time points with EDTA-K2 as anti-coagulant on ice, and centrifuged to obtain plasma samples. The plasma samples were stored at −20° C. until analysis.
# (§7) Into 10 μL of test compound plasma samples were added 2 μL DMSO then 200 μL of 5 ng/mL internal standard (VTSD) (Terfenadine) in MeOH/acetonitrile. The mixture was vortexed for 1 minute and centrifuged at 4000 rpm for 15 minutes. Calibration standards were prepared by spiking known amount of test compounds into blank plasma samples. The supernatant solution was diluted 5 times with Acetonitrile/H2O (with 0.1% formic acid, 1:1, v/v), and this is the solution for LC-MS/MS analysis. The limit of quantification (LOQ) was 1 ng/mL.
# (§8) Typical HPLC mobile phases were mobile phase of 5 mM NH4OAc (with 0.05% formic acid); and mobile phase B of acetonitrile (with 0.1% formic acid). The HPLC column was Kinetex C18 (30 mm×3.00 mm). Mass spectrometer was tuned for each compound in the Multiple Reaction Monitoring (MRM) scanning mode and in the electrospray ionization mode. The lower limit of quantification was 1-10 ng.
# (§9) In this study, K601 (RSL3) was formulated in 5% DMSO/30% PEG 400/65% water at 1.5 mg/mL. The volume of injection via intraperitoneal route was 10 mL/kg for a dose of 15 mg/kg. […] The limit of quantification (LOQ) was 1 ng/mL.
# (§10) In this study, the compound was formulated in 20% (w/w) sulfobutylether-β-cyclodextrin (SBECD), pH 5 aqueous solution at 1.5 mg/mL. The volume of injection via intraperitoneal route was 10 mL/kg for a dose of 15 mg/kg. The concentration of test compounds in plasma were analyzed by LC-MS with the method described above. The limit of quantification was 1 ng/mL.
# (§11) It was formulated in 5% DMSO/50% PEG400/45% Water pH adjusted to 4 with HCl as an aqueous solution at 1.0 mg/mL. The volume of injection via intraperitoneal route was 15 mL/kg for a dose of 15 mg/kg. The concentration of test compounds in plasma were analyzed by LC-MS with the method described above. The limit of quantification was 1 ng/mL. […] The limit of quantification was 1 ng/mL.
# (§12) Compounds 24 and 28 were formulated in 20% (w/w) sulfobutylether-β-cyclodextrin (SBECD) with pH 3 and pH 4, respectively, as an aqueous solution at 1.0 mg/mL. Compound 67 was in 5% DMSO/50% PEG 400/45% water pH 4 (adjusted with 12 N HCl) aqueous solution at 1.0 mg/mL. The injection volume via intraperitoneal route was 10 mL/kg for a dose of 15 mg/kg. The concentration of test compounds in plasma were analyzed by LC-MS with the method described above. The limit of quantification was 1 ng/mL.
# SW480 = experiment: Cell viability assay (CellTiter Glo), colon cancer cell line SW480; assay type: cell-based; conditions: Homo sapiens, 96 hours
# Experimental: as §1, §2
# Huh7 = experiment: Cell viability assay (CellTiter Glo), hepatocellular carcinoma Huh7; assay type: cell-based; conditions: Homo sapiens, Huh-7, 96 hours
# Experimental: as §1, §2
# Kasumi-1 = experiment: Cell viability assay (CellTiter Glo), leukemia cell line Kasumi-1; assay type: cell-based; conditions: Homo sapiens, 96 hours
# Experimental: as §1, §2, §3
# HT29 = experiment: Cell viability assay (CellTiter Glo), colon cancer cell line HT29; assay type: cell-based; conditions: Homo sapiens, HT-29, 96 hours
# Experimental: as §1, §2
# REC-1 = experiment: Cell viability assay (CellTiter Glo), lymphoma cell line REC-1; assay type: cell-based; conditions: Homo sapiens, Rec1, 96 hours
# Experimental: as §1, §2
# HT-1080 luc2 = experiment: Cell viability assay (CellTiter Glo), fibrosarcoma HT-1080 luc2; assay type: cell-based; conditions: Homo sapiens, fibrosarcoma expressing a luciferase gene, 96 hours, CellTiter Glo, read-out: IC50 HT-1080 luc2
# Experimental: as §1, §2
# (§5) The results of the assay in sarcoma cell lines are given in Table 21a for HT-1080 luc2 (fibrosarcoma expressing a luciferase gene), Table 21b for 143B (osteosarcoma), and Table 21c for SJSA-1 (osteosarcoma).
# 143B = experiment: Cell viability assay (CellTiter Glo), osteosarcoma 143B; assay type: cell-based; conditions: Homo sapiens, 96 h, osteosarcoma, 96 hours, CellTiter Glo, read-out: IC50 143B
# Experimental: as §1, §5
# AsPC-1 = experiment: Cell viability assay (CellTiter Glo), pancreatic adenocarcinoma AsPC-1; assay type: cell-based; conditions: Homo sapiens, ASPC1; pancreatic adenocarcinoma, ascites, 96 hours, CellTiter Glo; read-out: IC50 AsPC-1
# How it was run: as §4
# PANC1 = experiment: Cell viability assay (CellTiter Glo), pancreatic cell line PANC1; assay type: cell-based; conditions: Homo sapiens, PANC-1, 96 hours
# Experimental: as §1, §2
# The results of the assay in the pancreatic cell lines are given in Table 15a for PANC1, Table 15b for MiaPaCa-2, and Table 15c for AsPC-1.
# HL-60 = experiment: Cell viability assay (CellTiter Glo), leukemia cell line HL-60; assay type: cell-based; conditions: Homo sapiens, 96 hours
# Experimental: as §1, §2, §3
# SJSA-1 = experiment: Cell viability assay (CellTiter Glo), osteosarcoma SJSA-1; assay type: cell-based; conditions: Homo sapiens, 96 hours
# How it was run: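 Cells seeded at 500-5,000/well overnight, then 96 h exposure to 9-point 3-fold dilutions from up to 30 μM (4.6 nM-30 μM), final DMSO ≤0.25%. Viability by CellTiter Glo luminescence; inhibition relative to DMSO-only cells, yielding IC50, relative IC50 or % top inhibition.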
# in vivo = conditions: male, Balb/c nude, mouse, ip, 15 mg/kg, Calculated Concentration
# Experimental: as §6, §7, §8, §9, §10, §11, §12
# MCF-10A = experiment: Cell viability assay (CellTiter Glo), non-tumorigenic breast epithelial cell line MCF-10A; assay type: cell-based; conditions: Homo sapiens, 96 hours
# How it was run: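 Non-tumorigenic breast epithelial MCF-10A line, exposed for 96 hours to compound (top concentration up to 30 μM, 3-fold steps, duplicates, final DMSO 0.25% or less). ATP luminescence (CellTiter Glo) normalised to DMSO controls yields IC50, relative IC50 or % top inhibition; paclitaxel served as cytotoxic control.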
# Raji = experiment: Cell viability assay (CellTiter Glo), lymphoma cell line Raji; assay type: cell-based; conditions: Homo sapiens, 96 hours
# Experimental: as §1, §2
# SK-OV-3 = experiment: Cell viability assay (CellTiter Glo), ovarian cancer cell line SK-OV-3; assay type: cell-based; conditions: Homo sapiens, 96 hours
# Experimental: as §1, §2
# MDA-MB-435S = experiment: Cell viability assay (CellTiter Glo), melanoma cell line MDA-MB-435S; assay type: cell-based; conditions: Homo sapiens, 96 hours
# Experimental: as §1, §2
# H1299 = experiment: Cell viability assay (CellTiter Glo), lung cancer cell line H1299; assay type: cell-based; conditions: Homo sapiens, NCI-H1299, 96 hours
# Experimental: as §1, §2
# HCC1954 = experiment: Cell viability assay (CellTiter Glo), breast cancer cell line HCC1954; assay type: cell-based; conditions: Homo sapiens, 96 hours
# Experimental: as §1, §2
# [3] = Pharmacokinetic (PK) studies in Balb/C nude mice via intraperitoneal injection; conditions: plasma; for concentration at 0.5 h / concentration at 4 h: Calculated Concentration; for concentration at 0.5 h / concentration at 4 h / Calculated Concentration: IP 15 mg/kg, Balb/C nude mice
# Experimental: as §6, §7, §8, §9, §10, §11, §12
# [4] = male, Balb/c nude, mouse, ip, 15 mg/kg
structure (smiles),measurement,setting,value
COC(=O)[C@H]1Cc2c([nH]c3ccccc23)[C@H](c2ccc(S(=O)(=O)N[C@]34C[C@H]5C[C@H](C[C@H](C5)C3)C4)cc2)N1C(=O)CCl [Example 24],pIC50,H2228,7.74
same,pIC50,MV-4-1,7.68
same,pIC50,MiaPaCa-2,8.70
same,concentration at 1.0167 hr,[1]; 1 hour-IV infusion 2 mg/kg,0.0517 µg/mL
same,concentration at 1.0833 hr,[1]; 1 hour-IV infusion 2 mg/kg,0.0141 µg/mL
same,concentration at 1.25 hr,[1]; 1 hour-IV infusion 2 mg/kg,0.00495 µg/mL
same,concentration at 1.5 h,[1]; 1 hour-IV infusion 2 mg/kg,0.00218 µg/mL
same,concentration at 1.0167 hr,[1]; 1 hour-IV infusion 4 mg/kg,0.159 µg/mL
same,concentration at 1.0833 hr,[1]; 1 hour-IV infusion 4 mg/kg,0.0364 µg/mL
same,concentration at 1.25 hr,[1]; 1 hour-IV infusion 4 mg/kg,0.0138 µg/mL
same,concentration at 1.5 h,[1]; 1 hour-IV infusion 4 mg/kg,0.00507 µg/mL
same,concentration at 2 h,[1]; 1 hour-IV infusion 4 mg/kg,0.00262 µg/mL
same,concentration at 1.0167 hr,[1]; 1 hour-IV infusion 8 mg/kg,0.259 µg/mL
same,concentration at 1.0833 hr,[1]; 1 hour-IV infusion 8 mg/kg,0.0975 µg/mL
same,concentration at 1.25 hr,[1]; 1 hour-IV infusion 8 mg/kg,0.034 µg/mL
same,concentration at 1.5 h,[1]; 1 hour-IV infusion 8 mg/kg,0.0173 µg/mL
same,concentration at 2 h,[1]; 1 hour-IV infusion 8 mg/kg,0.00652 µg/mL
same,concentration at 3 h,"[1]; 1 hour-IV infusion 8 mg/kg, 3 hr",0.00292 µg/mL
same,"exposure (Cmax, AUC) compared with K601 (RSL3)",[2],higher exposure
same,pIC50,SW480,6.78
same,pIC50,Huh7,7.66
same,pIC50,Kasumi-1,7.06
same,pIC50,HT29,7.06
same,pIC50,REC-1,7.48
same,pIC50,HT-1080 luc2,7.82
same,pIC50,143B,8.40
same,pIC50,AsPC-1,7.72
same,pIC50,PANC1,7.72
same,pIC50,HL-60,7.80
same,pIC50,SJSA-1,7.89
same,concentration at 0.5 h,in vivo,0.332 µg/mL
same,concentration at 1 h,in vivo,0.355 µg/mL
same,concentration at 2 h,in vivo,0.0505 µg/mL
same,concentration at 4 h,in vivo,0.00341 µg/mL
same,concentration at 0.5 h,in vivo; Mean,0.464 µg/mL
same,concentration at 1 h,in vivo; Mean,0.317 µg/mL
same,concentration at 2 h,in vivo; Mean,0.0445 µg/mL
same,concentration at 4 h,in vivo; Mean,0.00456 µg/mL
same,pIC50,MCF-10A,6.39
same,pIC50,Raji,8.05
same,pIC50,SK-OV-3,7.77
same,pIC50,MDA-MB-435S,8.40
same,pIC50,H1299,8.52
same,pIC50,HCC1954,7.41
"COC(=O)c1ccc([C@H]2c3[nH]c4ccccc4c3C[C@H](C(=O)OC)N2C(=O)CCl)cc1 [Example K601, RSL3, reference compound]",pIC50,H2228,7.12
same,pIC50,MV-4-1,6.59
same,pIC50,MiaPaCa-2,7.82
same,pIC50,SW480,6.21
same,pIC50,Huh7,6.62
same,pIC50,Kasumi-1,6.69
same,pIC50,HT29,6.08
same,pIC50,REC-1,6.64
same,pIC50,HT-1080 luc2,7.57
same,pIC50,143B,7.49
same,pIC50,AsPC-1,6.98
same,pIC50,PANC1,6.94
same,AUC,[3]; [4],1.28 ng·h/mL
same,AUC(0-t),[3]; [4],1.28 ng·h/mL
same,Cmax,[3]; [4],0.00133 µg/mL
same,Tmax,[3]; [4],1.67 h
same,concentration at 0.5 h,"[3]; male, Balb/c nude, mouse, ip, 15 mg/kg, 0.5 h, individual mice",0.00118 µg/mL
same,concentration at 4 h,"[3]; male, Balb/c nude, mouse, ip, 15 mg/kg, 4 h, individual mice",0.00163 µg/mL
same,concentration at 0.5 h,"[3]; male, Balb/c nude, mouse, ip, 15 mg/kg, Mean, 0.5 h, mean of 3 mice",0.000783 µg/mL
same,concentration at 4 h,"[3]; male, Balb/c nude, mouse, ip, 15 mg/kg, Mean, 4 h, mean of 3 mice",0.000543 µg/mL
same,Calculated Concentration,"[3]; 0.5 h, individual mice, 15 mg/kg",BLOQ (BLOQ = Below limit of quantification (which was 1 ng/mL)) and 1.17 ng/mL
same,Calculated Concentration,"[3]; 1 h, individual mice",BLOQ (BLOQ = Below limit of quantification (which was 1 ng/mL))
same,Calculated Concentration,"[3]; 2 h, individual mice",BLOQ (BLOQ = Below limit of quantification (which was 1 ng/mL))
same,Calculated Concentration,"[3]; 4 h, individual mice, 15 mg/kg",BLOQ (BLOQ = Below limit of quantification (which was 1 ng/mL))
same,pIC50,HL-60,6.98
same,pIC50,SJSA-1,7.17
same,pIC50,MCF-10A,5.53
same,pIC50,Raji,7.04
same,pIC50,SK-OV-3,6.85
same,pIC50,MDA-MB-435S,7.43
same,pIC50,H1299,7.46
same,pIC50,HCC1954,6.74
